{"source": "patent US9834525B2", "about": "“Inhibitors of paxillin function and related compositions and methods” (UNIVERSITY OF TENNESSEE RESEARCH FOUNDATION, priority 2015, dated 2017)", "key": {"[1]": {"tested_on": "retinal endothelial cells (REC)", "test": "REC scratch-wound assay, VEGF-induced migration", "format": "cell-based, human", "settings": "for IC50: Homo sapiens, Endothelial cell", "method": "RECs were wounded and treated with VEGF (20 ng/mL) and either compound (II-4) (1 μM) or vehicle. Compound (II-4) reduced migration by ˜10-fold when measured 24 hrs post-scratch. (*P<0.001; n=6).\nTwo methods of evaluating VEGF-induced REC migration were used to assess the impact of compound (II-4) on paxillin-mediated migration: the scratch assay and the transwell (Boyden chamber) cell migration assay. To test if paxillin inhibition would reduce VEGF-induced REC migration, RECs were wounded and treated with VEGF ([…]) +/− compound (II-4) ([…]). Wound closure was monitored by phase microscopy over 24 hours and area of wound closure was calculated using the sophisticated image analysis tools in Adobe Photoshop. Cells were then fixed and nuclei were stained using DAPI to show extent of cell migration.\nFIG. 2: REC scratch-wound assay. RECs were wounded and treated with VEGF (20 ng/mL) and either compound (II-4) (1 μM) or vehicle. Compound (II-4) reduced migration by ˜10-fold when measured 24 hrs post-scratch. (*P<0.001; n=6)\nFIG. 17: REC migration. A) Increasing concentrations of compound (II-4) inhibit VEGF-induced migration in a scratch wound assay; [Serum Free-control, VEGF (100 ng/mL), VEGF+100 nM, 500 nM, 10 μM, 100 μM] (IC50≈180 ηM; n=6/group). Cells were stained with DAPI for representative images. B) RECs seeded onto transwell membranes were stimulated with VEGF+ vehicle or compound (II-4) for 24 hrs. Cells were removed from the topside of membrane and migrated cells were stained with DAPI [Serum-Free (SF), VEGF, +100, +500 nM, respectively]. Cell number was measured using fluorescence microscopy. All data are mean±SD (*, # P<0.001)"}, "paxillin (pY118)": {"tested_on": "paxillin (pY118)", "test": "Western blot of VEGF-induced paxillin Y118 phosphorylation in REC", "format": "cell-based, human", "method": "REC, Mel 270, OMM 2.5 under Hepatocyte Growth Factor (HGF) or Vascular Endothelial Growth Factor (VEGF) stimulation conditions: Cell lysates were collected in RIPA lysis buffer (50 mM Tris-HCl, pH 7.4, 150 mM NaCl, 2 mM EDTA, 1% Nonidet P-40, 0.1% SDS) with protease 1× inhibitor cocktail (Roche; Indianapolis, Ind.). Lysates were kept on ice and centrifuged at 10,000×g×10 minutes and total protein was measured using the BCA assay (Pierce, Rockford, Ill.). Protein samples were mixed with 4×LDS loading buffer with 2.5% 2-mercaptoethanol (Sigma-Aldrich), heated to 70° C. for 10 minutes, and loaded on NuPAGE 4-12% Bis-Tris gel (Invitrogen, Carlsbad, Calif.). Immunoblotting was performed with nitrocellulose membranes (Bio-Rad, Hercules, Calif.) at 170-mA start and 110-mA end at 25 V for two hours in NuPAGE transfer buffer (Invitrogen) containing 20% methanol. Membranes were blocked using Odyssey blocking buffer (LI-COR; Lincoln, Nebr.) for one hour at room temperature with gentle shaking Membranes were then incubated at 4° C. with specific primary antibodies (1:1000) overnight. Cellular protein was normalized using rabbit-GAPDH or mouse-α-Tubulin [1:20,000] (Cell Signaling, Danvers, Mass.; LI-COR, respectively). Secondary antibodies (IRDye 800CW goat anti-rabbit and IRDye 680LT goat anti-mouse) [1:10,000] were incubated in the dark at room temperature for 45 minutes. Dual-channel infrared scan and quantitation of immunoblots were conducted using the ODYSSEY Sa infrared imaging system with Image Studio (Ver. 3.1.4) (LI-COR).\nThe α4 subunit of the cytoplasmic tail of VLA-4 interacts with the cytoskeletal adaptor paxillin, merging intracellular signaling events that drive cellular proliferation and migration (FIG. 13). Compound (II-4) inhibits phosphorylation of paxillin at Y118 (pY118) in the LD-region that interacts with the α4 subunit of VLA-4. To confirm the inhibition of pY118 of paxillin after use of compound (II-4) retinal endothelial cells (REC) were activated with Vascular Endothelial Growth Factor (VEGF) at 50 ng/mL in the presence or absence (vehicle) of compound (II-4) at a concentration of […] for 4-hrs. […] VEGF-induced pY118 was prevented by treatment with compound (II-4) [VEGF-REC treatment versus untreated, *p<0.005; VEGF-induced versus compound (II-4) treatment, **p<0.05—FIG. 13C].\nTo gain insight into the mechanistic basis for this phenotype, the effect of compound (II-4) on the Src/FAK/paxillin/ERK signalsome in RECs under VEGF was examined. […] Next, characterization of the potential of compound (II-4) to affect FA disassembly through inactivation of ERK was explored. […]\nFIG. 13: Targeting the alpha-4 subunit of VLA-4 signaling through inhibition of paxillin. […] Phosphorylation measured by Western Blot. […]"}}, "note": "“Also recorded” adds a separate entry of the source. Like-named read-outs stand apart in the source and are kept apart here."}
{"smiles": "COc1cc(C2OC(=O)Nc3c2ccc2ccccc32)cc(OC)c1OC", "note": "(centres unmarked) [compound II-4]", "values": [{"measurement": "IC50", "setting": "[1]; VEGF (100 ng/mL), n=6/group, read-out: IC50, inhibition of VEGF-induced migration in scratch wound assay", "result": "~180", "unit": "nM"}, {"measurement": "IC50", "setting": "[1]; wound closure at 24 hours, VEGF (100 μg/mL), compound 100 μM to 10 μM as printed, read-out: IC50, inhibition of VEGF-induced REC migration (wound closure)", "result": 181, "unit": "nM"}, {"measurement": "reduction of migration in REC scratch-wound assay", "setting": "[1]; VEGF (20 ng/mL), compound (II-4) 1 μM vs vehicle, 24 hrs post-scratch", "result": "~10", "unit": "fold"}, {"measurement": "VEGF-induced PaxY118 phosphorylation (FIG. 20)", "setting": "paxillin (pY118); REC under VEGF, compound (II-4) 500 nM, SU6656 1 μM", "result": "able to inhibit; also recorded: reduced"}, {"measurement": "VEGF-induced paxillin phosphorylation (pY118)", "setting": "paxillin (pY118); REC, VEGF 50 ng/mL, 4 hrs, inhibitor 1 μM (printed 104)", "result": "prevented; also recorded: reduced"}]}
